In patent US20040224020A1, “Oral dosage forms with therapeutically active agents in controlled release cores and immediate release gelatin capsule coats” (priority 2002, published 2004):

Experiments:
[1] = Viscosity of SAIB/solvent compositions, Cannon-Fenske viscometer; type: physicochemical; settings: Cannon-Fenske viscometer of size 200 at 30° C.
[2] = Excerpt: Where the controlled release core is in the form of a liquid, the amount and type of solvent used with SAIB should be optimized so as to obtain a liquid wherein the at least one therapeutically active agent is acceptably soluble.
In order to obtain a soluble liquid fill, the amounts of (i) SAIB, (ii) at least one biocompatible solvent, and (iii) at least one therapeutically active agent is optimized.

Row | viscosity (centipoises value) [1] | ethanol required to achieve solubility with SAIB [2] | Compound
1 | 1.3 centipoises |  | CCO [ethanol]
2 |  | approximately 15 % (by weight) | CC(C)Cc1ccc(C(C)C(=O)O)cc1 (centres unmarked) [ibuprofen]
